Assays:
Format in all cases: in vivo, BALB/c mice
A20 lymphoma = assay: Intratumoral TLR9 agonist in A20 lymphoma model, treated and distant tumors (Example 3)
CT26 cells [1] = assay: TLR9 agonist and anti-IDO1 inhibitor combination, CT26 treated tumors and systemic lung metastases (Example 9); details: compared with PBS group (nodules infiltrating most of the lung tissues); FIG. 16 legend
Method: BALB/c mice were implanted s.c with 1×10^7 CT26 cells on right flank. The mice were than i.v injected with 3×10^6 CT26 cells to establish lung metastases. Treatment was initiated on day 4. 2.5 mg/kg IMO-4 was administered intratumorally into solid tumors on the right flank and 75 mg/kg anti-IDO1 inhibitor was administered orally (p.o.). IMO-4 and anti-IDO1 inhibitor were given either alone or co-administered on days 4, 5, 7, and 8. Anti-IDO1 was administered twice. Samples from control, IMO-4, anti-IDO1 inhibitor or IMO-4 and anti-IDO1 inhibitor treated tumor-bearing mice were collected. FIGS. 14 through 17 show the effects of IMO-4 and anti-IDO1 inhibitor on directly treated tumors and systemic lung metastasis.

B16 cells = assay: Intratumoral TLR9 agonist in B16 melanoma model, treated and distant tumors (Example 5)
Method: […] mice (n=9) were implanted s.c with 1×10^6 B16 cells on the right and left flank. Treatment was initiated on day 7 with intratumoral injection in the left flank with of 2.5 mg/kg IMO-4. IMO-4 was given on days 7, 9, 11, 13 and 15. Samples from placebo (PBS) control and IMO-4 treated tumor-bearing mice were collected on day 22 after tumor implantation. […] Intratumoral IMO-4 also modulated tumor checkpoint expression thereby sensitizing the tumor microenvironment for combination with one or more checkpoint inhibitors (data not shown).

A20 cells = assay: Intratumoral vs subcutaneous TLR9 agonist in A20 lymphoma model (Example 2)
Method: BALB/c mice (n=10) were implanted s.c with 3×10^6 A20 cells on the right flank. Treatment was initiated on day 8 with either intratumoral (i.t.) or subcutaneous (s.c.) injection of 2.5 mg/kg IMO-4. IMO-4 was given on days 8, 10, 12 and 14. Samples from placebo (PBS) control and IMO-4 treated tumor-bearing mice were collected on day 21 after tumor implantation. […] Intratumoral IMO-4 also modulated tumor checkpoint expression compared to subcutaneous administration thereby sensitizing the tumor microenvironment for combination with one or more checkpoint inhibitors (data not shown).

CT26 cells [2] = assay: Intratumoral TLR9 agonist in CT26 colon carcinoma model, treated and distant tumors (Example 4)
Method: BALB/c mice (n=9) were implanted s.c with 2×10^6 CT26 cells on the right and left flank. Treatment was initiated on day 7 with intratumoral injection in the left flank with 2.5 mg/kg IMO-4. IMO-4 was given on days 7, 9, 11, 13 and 15. Samples from placebo (PBS) control and IMO-4 treated tumor-bearing mice were collected on day 27 after tumor implantation. […] Intratumoral IMO-4 also modulated tumor checkpoint expression thereby sensitizing the tumor microenvironment for combination with one or more checkpoint inhibitors (data not shown).

[3] = test system: murine colon carcinoma CT26 cells; assay: TLR9 agonist and anti-PD-1 mAb combination, CT26 treated and distant tumors (Example 7); details: FIG. 11
Method: BALB/c mice (n=8 per group) were implanted s.c with 1×10^7 murine colon carcinoma CT26 cells in right flank (Tumor 1) and left flank (Tumor 2). Treatment was initiated on day 7 when tumor volume on reaches 200 to 300 mm^3. 2.5 mg/kg IMO-4 (50 μg in 100 μl PBS) was i.t injected at right tumor nodules and anti-PD-1 mAb (10 mg/kg, 200 μg/mouse) was administered by i.p injection either alone or co-administered on days 7, 8, 11 and 12 for total 4 times. Tumor nodules were collected at day 14.

## 5-TCGAACG1TTCG1-X-G1CTTG1CAAG1CT-5′ (chain 1 TCGAACGTTCG; chain 2 TCGAACGTTCG; two copies joined 3'-3' by glycerol linker; G1 modified; modified_base (3)..(3) 2′-deoxy-7-deazaguanosine; modified_base (7)..(7) 2′-deoxy-7-deazaguanosine; modified_base (11)..(11) 2′-deoxy-7-deazaguanosine) [IMO-4]
A20 lymphoma; intratumoral in left flank, 2.5 mg/kg on days 8, 10, 12, 14, FIG. 4
  antitumor activity, treated and distant tumor nodules: potent antitumor activity in both treated and distant tumor nodules
A20 lymphoma; intratumoral, data not shown
  tumor checkpoint expression: modulated
CT26 cells [1]
  tumor nodules in lung tissues: tumor nodules are smaller than that of the PBS group
B16 cells; intratumoral in left flank, 2.5 mg/kg on days 7, 9, 11, 13, 15, FIG. 6
  antitumor activity, treated and distant tumor nodules: potent antitumor activity in both treated and distant tumor nodules
B16 cells; intratumoral, data not shown
  tumor checkpoint expression: modulated
A20 cells; intratumoral 2.5 mg/kg on days 8, 10, 12, 14, FIG. 3
  antitumor activity: potent antitumor activity
A20 cells; intratumoral 2.5 mg/kg, samples day 21, FIG. 3
  CD3+ TIL infiltration: induced
A20 cells; intratumoral compared to subcutaneous administration, data not shown
  tumor checkpoint expression: modulated
CT26 cells [2]; intratumoral in left flank, 2.5 mg/kg on days 7, 9, 11, 13, 15, FIG. 5
  antitumor activity, treated and distant tumor nodules: potent antitumor activity in both treated and distant tumor nodules
CT26 cells [2]; intratumoral, data not shown
  tumor checkpoint expression: modulated
[3]; compared with few CD3+ cells in PBS (vehicle) mice
  CD3+ cells in tumor tissue: a large number of CD+3 cells
[3]; tumor nodules collected day 14
  T lymphocyte infiltration into tumor tissues: increases

— patent publication US20170274004A1, “TREATMENT OF CANCER USING TLR9 AGONIST WITH CHECKPOINT INHIBITORS” (IDERA PHARMACEUTICALS, INC., priority 2014, published 2017)
